One assay deals with MDA-MB-231. Kind of assay: Cytotoxicity against human MDA-MB-231 cells assessed as inhibition of cell proliferation after 48 hrs by MTT assay. To be noted: MDA-MB-231, 48 h. In kind it is functional, cell-based.
The subject of another assay is PC-3. Kind of assay: Cytotoxicity against human PC3 cells assessed as inhibition of cell proliferation after 48 hrs by MTT assay. In kind it is functional, cell-based. To be noted: PC-3, 48 h. For orientation: Tetrazolium assays rely on reduction of a dye to a coloured formazan, in cell work by metabolically active cells.
In the next assay the test system is K562. The experiment in a line: Cytotoxicity against human K562 cells assessed as inhibition of cell proliferation after 48 hrs by MTT assay. In kind it is functional, cell-based. The note with it: K562, 48 h.
Assay [1] has as its target Apoptosis regulator Bcl-2 (Homo sapiens, UniProt P10415). Kind of assay: Competitive binding affinity to Bcl-2 (unknown origin) preincubated for 30 mins followed by 5-FAM-Bid-BH3 peptide addition measured after 20 mins by fluorescence polarization assay. (Polarisation of emitted light reports the rotation of a fluorescent probe.)
Assay [2] addresses Induced myeloid leukemia cell differentiation protein Mcl-1 (Homo sapiens, UniProt Q07820). Kind of assay: Competitive binding affinity to Mcl-1 (unknown origin) preincubated for 30 mins followed by 5-FAM-Bid-BH3 peptide addition measured after 20 mins by fluorescence polarization assay.
Another assay has as its target Bcl-2-like protein 1 (Homo sapiens, UniProt Q07817). Kind of assay: Competitive binding affinity to Bcl-XL (unknown origin) preincubated for 30 mins followed by 5-FAM-Bid-BH3 peptide addition measured after 20 mins by fluorescence polarization assay.

Bounds are passed on as bounds.

Sequence of Bcl-2-like protein 1 (Q07817 whole entry): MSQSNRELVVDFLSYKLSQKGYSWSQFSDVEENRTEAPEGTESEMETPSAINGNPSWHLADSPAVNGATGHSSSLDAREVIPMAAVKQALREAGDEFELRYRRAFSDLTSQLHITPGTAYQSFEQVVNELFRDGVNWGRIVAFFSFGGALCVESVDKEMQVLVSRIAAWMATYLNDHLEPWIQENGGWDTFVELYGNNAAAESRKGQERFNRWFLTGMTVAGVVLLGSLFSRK
Sequence of Induced myeloid leukemia cell differentiation protein Mcl-1 (Q07820 whole entry): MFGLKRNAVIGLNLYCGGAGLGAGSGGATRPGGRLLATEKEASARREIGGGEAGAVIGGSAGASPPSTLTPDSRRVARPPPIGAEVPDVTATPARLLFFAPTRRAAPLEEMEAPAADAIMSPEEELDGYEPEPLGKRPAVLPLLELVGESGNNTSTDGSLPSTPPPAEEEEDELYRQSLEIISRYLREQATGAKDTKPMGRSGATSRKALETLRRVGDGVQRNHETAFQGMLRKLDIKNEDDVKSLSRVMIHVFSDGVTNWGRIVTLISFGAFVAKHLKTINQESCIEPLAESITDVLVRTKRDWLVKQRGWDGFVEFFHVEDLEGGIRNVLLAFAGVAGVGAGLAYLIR
Sequence of Apoptosis regulator Bcl-2 (P10415 whole entry): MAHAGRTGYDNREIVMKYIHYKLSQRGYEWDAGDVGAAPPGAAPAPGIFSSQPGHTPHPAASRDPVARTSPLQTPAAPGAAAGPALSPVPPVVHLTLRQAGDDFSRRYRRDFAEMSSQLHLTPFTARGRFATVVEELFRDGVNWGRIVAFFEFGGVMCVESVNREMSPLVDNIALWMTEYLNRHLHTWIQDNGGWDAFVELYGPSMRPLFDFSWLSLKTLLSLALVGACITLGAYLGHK

With `Cc1ccc(S(=O)(=O)NC(=O)[C@H](Cc2ccccc2)N2C(=O)/C(=C/c3ccc(-c4ccccc4)cc3)SC2=S)cc1`, the IC50 with MDA-MB-231 came out at 35.2 µM; with PC-3 it was 39.8 µM; with K562, 44.9 µM. In assay [1], this compound showed a Ki of 0.62 µM.

Regarding `O=C(Nc1ccc(O)cc1)[C@H](Cc1ccccc1)N1C(=O)N[C@@H](Cc2ccc(-c3ccc(Cl)cc3)cc2)C1=O`, the Ki in assay [1] was over 50 µM.

Turning to `COC(=O)[C@H](Cc1ccccc1)NC(=O)[C@H](Cc1ccccc1)N1C(=O)N[C@@H](Cc2ccc(-c3ccc(Cl)cc3)cc2)C1=O`, the inhibition constant (Ki) in assay [1] was over 50 µM.

`O=C(O)[C@H](Cc1ccccc1)NC(=O)[C@H](Cc1ccccc1)N1C(=O)N[C@@H](Cc2ccc(-c3ccc(Cl)cc3)cc2)C1=O` came in with a Ki in assay [1] of over 50 µM.

As to `O=C(O)[C@H](Cc1ccccc1)N1C(=O)N[C@@H](Cc2ccccc2)C1=O`, in assay [1], the Ki is over 50 µM.

The compound `O=C(O)[C@H](Cc1ccccc1)N1C(=O)N[C@@H](Cc2ccc(Br)cc2)C1=O` returned a Ki in assay [1] of over 50 µM.

The compound `O=C(O)[C@H](Cc1ccccc1)N1C(=O)N[C@@H](Cc2ccc(-c3ccc(Cl)cc3)cc2)C1=O` gave an inhibition constant (Ki) in assay [1] of over 50 µM.

In assay [1], `Cc1cccc(-c2ccc(C[C@@H]3NC(=O)N([C@@H](Cc4ccccc4)C(=O)O)C3=O)cc2)c1` came in with a Ki of over 50 µM.

With `O=C(O)[C@H](Cc1ccccc1)N1C(=O)N[C@@H](Cc2ccc(-c3ccnc(F)c3)cc2)C1=O`, in assay [1], the Ki was over 50 µM.

`O=C(NS(=O)(=O)c1ccccc1)[C@H](Cc1ccccc1)N1C(=O)N[C@@H](Cc2ccccc2)C1=O` showed a Ki in assay [1] of over 50 µM.

Take `O=C(NS(=O)(=O)c1ccc(Cl)c([N+](=O)[O-])c1)[C@H](Cc1ccccc1)N1C(=O)N[C@@H](Cc2ccccc2)C1=O`: the Ki in assay [1] was over 50 µM.

The compound `O=C(NS(=O)(=O)c1ccccc1)[C@H](Cc1ccccc1)N1C(=O)N[C@@H](Cc2ccc(Br)cc2)C1=O` yielded a Ki in assay [1] of over 50 µM.

In assay [1], `O=C(NS(=O)(=O)c1ccc(Cl)c([N+](=O)[O-])c1)[C@H](Cc1ccccc1)N1C(=O)N[C@@H](Cc2ccc(Br)cc2)C1=O` displayed a Ki of over 50 µM.

The compound `O=C(NS(=O)(=O)c1ccccc1)[C@H](Cc1ccccc1)N1C(=O)N[C@@H](Cc2ccc(-c3ccc(Cl)cc3)cc2)C1=O` displayed an inhibition constant (Ki) in assay [1] of 19 µM.

Consider `Cc1ccc(S(=O)(=O)NC(=O)[C@H](Cc2ccccc2)N2C(=O)N[C@@H](Cc3ccc(-c4ccc(Cl)cc4)cc3)C2=O)cc1`, for which the Ki in assay [1] was over 50 µM.

Regarding `O=C(NS(=O)(=O)c1ccc(Cl)c([N+](=O)[O-])c1)[C@H](Cc1ccccc1)N1C(=O)N[C@@H](Cc2ccc(-c3ccc(Cl)cc3)cc2)C1=O`, the IC50 with MDA-MB-231 is 70.8 µM; with PC-3 it was 51.7 µM; in the assay on K562 it was 39.4 µM. The figures for the Ki (in assay [2]; in assay [1]; on Bcl-2-like protein 1) were 2.9 µM, 3.7 µM and 6.1 µM, respectively.

`O=C(NS(=O)(=O)c1cccc([N+](=O)[O-])c1)[C@H](Cc1ccccc1)N1C(=O)N[C@@H](Cc2ccc(-c3ccc(Cl)cc3)cc2)C1=O`: the IC50 in the assay with MDA-MB-231 came to 76.4 µM; in the assay with PC-3 it was 73.3 µM; in the assay with K562 it was 49 µM. In addition, the figures for the Ki (in assay [2]; in assay [1]; on Bcl-2-like protein 1) were over 50 µM, 15 µM and over 50 µM, respectively.

Compound `Cc1cccc(-c2ccc(C[C@@H]3NC(=O)N([C@@H](Cc4ccccc4)C(=O)NS(=O)(=O)c4ccccc4)C3=O)cc2)c1` had a Ki in assay [1] of over 50 µM.

As to `Cc1ccc(S(=O)(=O)NC(=O)[C@H](Cc2ccccc2)N2C(=O)N[C@@H](Cc3ccc(-c4cccc(C)c4)cc3)C2=O)cc1`, the values for the IC50 in the assay on MDA-MB-231, with PC-3 and in the assay with K562 were 63.5 µM, 56 µM and 46.9 µM, respectively. Also, the Ki in assay [2] was over 50 µM; in assay [1], 13 µM; on Bcl-2-like protein 1 it was over 50 µM.

On to `Cc1cccc(-c2ccc(C[C@@H]3NC(=O)N([C@@H](Cc4ccccc4)C(=O)NS(=O)(=O)c4ccc(Cl)c([N+](=O)[O-])c4)C3=O)cc2)c1`, for which the IC50 stood at 57.8 µM in the assay on MDA-MB-231, 28.4 µM with PC-3 and 35.1 µM with K562. Further, the inhibition constant (Ki) was 2.3 µM in assay [2], 4.4 µM in assay [1] and 4.7 µM on Bcl-2-like protein 1.

For the compound `O=Cc1ccc(-c2ccc(C[C@@H]3NC(=O)N([C@@H](Cc4ccccc4)C(=O)NS(=O)(=O)c4ccc(Cl)c([N+](=O)[O-])c4)C3=O)cc2)cc1`, the figures for the IC50 in the assay with MDA-MB-231, with PC-3 and with K562 were 83.4 µM, 63.8 µM and 68.4 µM, respectively. Also, the Ki in assay [2] is 9.3 µM; in assay [1], 13 µM; at Bcl-2-like protein 1 it was over 50 µM.

`O=C(NS(=O)(=O)c1ccccc1)[C@H](Cc1ccccc1)N1C(=O)N[C@@H](Cc2ccc(-c3ccnc(F)c3)cc2)C1=O`: the Ki in assay [1] is over 50 µM.

Turning to `Cc1ccc(S(=O)(=O)NC(=O)[C@H](Cc2ccccc2)N2C(=O)N[C@@H](Cc3ccc(-c4ccnc(F)c4)cc3)C2=O)cc1`, the Ki in assay [1] was over 50 µM.

`O=C(NS(=O)(=O)c1ccc(Cl)c([N+](=O)[O-])c1)[C@H](Cc1ccccc1)N1C(=O)N[C@@H](Cc2ccc(-c3ccnc(F)c3)cc2)C1=O` showed a Ki in assay [1] of over 50 µM.

In turn, `COC(=O)[C@@H](NC(=O)[C@H](Cc1ccccc1)N1C(=O)N[C@@H](Cc2ccc(-c3ccc(Cl)cc3)cc2)C1=O)C(C)C` showed an inhibitory constant (Ki) in assay [1] of over 50 µM.

Turning to `CC(C)[C@H](NC(=O)[C@H](Cc1ccccc1)N1C(=O)N[C@@H](Cc2ccc(-c3ccc(Cl)cc3)cc2)C1=O)C(=O)O`, in assay [1], the Ki was over 50 µM.

The compound `CC(=O)Oc1ccc(NC(=O)[C@H](Cc2ccccc2)N2C(=O)N[C@@H](Cc3ccc(-c4ccc(Cl)cc4)cc3)C2=O)cc1` displayed a Ki in assay [1] of over 50 µM.

One may read the IC50 as the concentration needed to halve the response being measured. What is called Ki is a measure of affinity in units of concentration, obtained from inhibition or displacement. Read a high Ki as lower affinity.
